According to patent publication US20180185374A1, “INHIBITORS OF MTOR KINASE AS ANTI-VIRAL AGENTS” (THE TRUSTEES OF PRINCETON UNIVERSITY, priority 2009, published 2018):
pIC50: −log10 of the molar value.

How the values were obtained:
[1] = system: HCMV; test: HCMV multistep growth in serum-starved human fibroblasts, cell-free virus by TCID50; type: cell-based, human cytomegalovirus
[2] = system: HCMV; test: Western blot of HCMV proteins (IE1, pUL44, pUL99) in infected fibroblasts; type: cell-based, human cytomegalovirus; conditions: 6 to 96 hpi; rapamycin 20 nM, Torin1 250 nM; 3 PFU/cell
Method: FIG. 2. […] Serum-starved confluent fibroblasts were infected with HCMV at a multiplicity of 3 PFU/cell. […] Control cultures received the vehicle in which Torin1 was dissolved (NT). At 2 hpi cells were harvested, and cell-associated viral DNA was quantified by real-time PCR analysis. Error bars represent the standard errors of the means from two independent experiments performed in duplicate. […] The level of IE1 was determined at 6 hpi by a Western blot assay using an IE1-specific monoclonal antibody. The image is representative of two independent experiments. […] The expression of a GFP marker gene present in the viral genome was monitored at 24 h after infection in the presence or absence of drug.
FIG. 3. […] (A) Rapamycin-resistant mTOR activity is required for the accumulation of an some but not all HCMV proteins. […] Cells were harvested at the indicated times, and the accumulation of the indicated proteins was analyzed by Western blotting. […] At the indicated times DNA was isolated, and viral DNA was quantified by qPCR. Equivalent amounts of DNA were analyzed for each sample, and the results are normalized to the level of actin DNA per sample. […] At the indicated times the amount of UL99 RNA was determined by qPCR, and the results are normalized to the amount of actin RNA in each sample.
Cells were lysed in radioimmunoprecipitation assay (RIPA) buffer (50 mM Tris-HCl [pH 7.4], […], 0.25% sodium deoxycholate, 150 mM NaCl, 1 mM EDTA) containing protease inhibitors (complete EDTA free; Roche). Protein concentrations in each lysate were determined by the Bradford assay. 30 μg of protein was analyzed per sample. Proteins in cell lysates were resolved on SDS-containing 10% polyacrylamide gels. Proteins were transferred onto Protran membranes by using a semidry transfer apparatus. […]
Antibodies to pUL99 have been described previously (Silva, et al. J. Virol. (2003) 77:10594-10605). In addition, accumulation of HCMV DNA was monitored following infection using the methods described above.

[3] = system: HCMV; test: UL99 late transcript level by qPCR; type: cell-based, human cytomegalovirus; conditions: rapamycin 20 nM, Torin1 250 nM; 3 PFU/cell
[4] = system: rpS6; test: rpS6 phosphorylation in HCMV-infected fibroblasts, Western blot; type: cell-based, human; conditions: rapamycin 20 nM, Torin1 250 nM; 3 PFU/cell
Method: (§1) FIG. 4. Rapamycin-resistant mTOR activity is required for 4EBP1 phosphorylation and eIF4F complex integrity during HCMV infection. Serum-starved confluent human fibroblasts were infected with HCMV at a multiplicity of 3 PFU/cell. […] (A) At 48 hpi the phosphorylation status of mTORC1 targets was assessed by Western blot assay by using antibodies to phosphorylated targets (4EBP1-PT^37/46 and rpS6-PS^235/6) and total proteins. Tubulin was assayed as a loading control. (B) Same as above (A) except that cells were harvested at the indicated times. (C and D) After mock infection (M) or infection with HCMV (WT) at a multiplicity of 3 PFU/cell, cultures were harvested at the indicated times. Equivalent amounts of protein from each sample were incubated with m^7GTP-Sepharose, and the isolated protein complexes were analyzed by Western blotting using the indicated antibodies to the eIF4F complex and 4EBP1. In all cases the results are representative of at least two independent experiments. lys, lysate.
HCMV infection induces mTORC1 activity, but the phosphorylation of mTORC1 targets is differentially sensitive to the mTORC1 inhibitor rapamycin. […] Total 4EBP1, rpS6, and tubulin levels were monitored to control for protein recovery. […]

[5] = system: eIF4F complex; test: m7GTP-Sepharose cap-binding assay, HCMV-infected fibroblasts; type: cell-based, human; conditions: rapamycin 20 nM, Torin1 250 nM
Method: as §1
The phosphorylation status of 4EBP1 regulates cap-dependent protein translation. Hypophosphorylated 4EBP1 binds to eIF4E and inhibits the formation of the eIF4F complex, while the phosphorylation of 4EBP1 inhibits its interaction with eIF4E. […]

[6] = system: HSV-1; test: HSV-1 replication in MEFs, TCID50; type: cell-based, herpes simplex virus type 1; conditions: 72 hpi
[7] = system: γHV68; test: γHV68 replication in MEFs, TCID50; type: cell-based, murine gammaherpesvirus 68; conditions: 0.05 PFU/cell, 6 days post infection, rapamycin 20 nM, Torin1 250 nM
[8] = system: 4EBP1; test: 4EBP1 phosphorylation in HSV-1-infected MEFs, Western blot; type: cell-based, mouse; conditions: 3 PFU/cell, 8 hpi
[9] = system: cells; conditions: concentrations of up to 500 nM; previous reports; cited from earlier work

## CCC(=O)N1CCN(c2ccc(-n3c(=O)ccc4cnc5ccc(-c6cnc7ccccc7c6)cc5c43)cc2C(F)(F)F)CC1 [Torin1]
[1]; day 10, 0.05 PFU/cell, rapamycin 20 nM, Torin1 250 nM
  reduction of HCMV yield: about 160 fold
[1]; read-out: 50% inhibitory concentration (IC50) for production of HCMV progeny, 8 days post infection
  pIC50: ~7.22
[2]
  accumulation of early protein pUL44: inhibited the accumulation of IE1 and pUL44 to a limited extent
  accumulation of immediate-early protein IE1: inhibited the accumulation of IE1 and pUL44 to a limited extent
  accumulation of late protein pUL99: dramatically reduced
[3]
  levels of UL99 mRNA: decreased the levels of UL99 mRNA
[4]
  induction of rpS6 phosphorylation during HCMV infection: markedly inhibited
[5]
  association of 4EBP1 with m7GTP-Sepharose: substantially increased association
  association of eIF4G and eIF4A with the cap analog: reduced association
[6]; 4EBP1-null MEFs
  production of HSV-1: failed to inhibit
[6]; MEFs, 0.05 PFU/cell, rapamycin 20 nM, Torin1 250 nM
  HSV-1 replication: inhibited both viruses
[7]
  γHV68 replication: inhibited both viruses
[8]
  phosphorylation of 4EBP1 during HSV-1 infection: inhibited
[9]
  cell killing: does not kill cells
